Literature values in patent US20220257562A1, “METHOD FOR IMPROVING ENDOMETRIOSIS AND METHOD FOR PRODUCING A MATERIAL USED THEREFOR” (NICHIMO CO., LTD., priority 2017, published 2022).

Experiments:
[1] = system: MCF-7; settings: for effect on tamoxifen: MCF-7 / mammary tumors, Non-patent Literature 15, 17; for cell proliferation of estrogen-dependent breast cancer cells (MCF-7): Non-patent Literature 14, 16
[2] = target: ERβ (Homo sapiens, UniProt Q92731); settings: Non-Patent Literature 23
Chain of ERβ (Q92731 whole entry, species assumed): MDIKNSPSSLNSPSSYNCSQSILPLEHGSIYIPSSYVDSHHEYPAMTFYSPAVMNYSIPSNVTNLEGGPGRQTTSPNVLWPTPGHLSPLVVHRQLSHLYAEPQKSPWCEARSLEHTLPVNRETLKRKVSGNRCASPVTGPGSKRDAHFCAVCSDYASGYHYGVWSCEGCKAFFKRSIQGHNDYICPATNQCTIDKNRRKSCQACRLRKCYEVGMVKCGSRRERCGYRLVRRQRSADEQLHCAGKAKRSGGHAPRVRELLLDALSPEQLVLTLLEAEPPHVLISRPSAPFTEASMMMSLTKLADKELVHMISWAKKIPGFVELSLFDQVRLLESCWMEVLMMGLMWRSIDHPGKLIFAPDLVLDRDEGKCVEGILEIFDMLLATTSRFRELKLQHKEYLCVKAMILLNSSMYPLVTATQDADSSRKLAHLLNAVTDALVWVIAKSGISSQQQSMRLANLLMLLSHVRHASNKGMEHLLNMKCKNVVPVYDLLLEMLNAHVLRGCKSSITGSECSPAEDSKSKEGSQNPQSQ

binding to ERβ [2]	Structure (SMILES)	effect on tamoxifen [1]	cell proliferation of estrogen-dependent breast cancer cells (MCF-7) [1]
–	O=c1c(-c2ccc(O)cc2)coc2cc(O)cc(O)c12 [Genistein, genistein]	attenuates the inhibitory effect of tamoxifen	promotes cell proliferation
binds weakly	O=c1c(-c2ccc(O)cc2)coc2cc(O)ccc12 [daidzein]	improved the therapeutic effect of tamoxifen	suppressed the proliferation
